Legend:
[1] = (§1) The drug is tested on Z-024 corresponding to pig gut metagenome with ENA study accession number: PRJEB37062 and ENA sample accession number: ERS12561823 for biotransformation under anaerobic condition. The drug concentrations were measured over 9 timepoints collected between 0 and 24 hours of incubation by liquid-chromatography-coupled mass spectrometry (LC–MS); settings: 2 µM
[2] = as §1, with “Z-019” for “Z-024”, “rat” for “pig”, “ERS12561818” for “ERS12561823”; settings: 2 µM
[3] = as §1, with “Z-017” for “Z-024”, “mouse” for “pig”, “ERS12561816” for “ERS12561823”; settings: 2 µM
[4] = as §1, with “Z-016” for “Z-024”, “mouse” for “pig”, “ERS12561815” for “ERS12561823”; settings: 2 µM
[5] = as §1, with “Z-007” for “Z-024”, “rat” for “pig”, “ERS12561807” for “ERS12561823”; settings: 2 µM
[6] = as §1, with “WLS-170” for “Z-024”, “human” for “pig”, “ERS12561762” for “ERS12561823”; settings: 2 µM
[7] = as §1, with “WLS-073” for “Z-024”, “human” for “pig”, “ERS12561749” for “ERS12561823”; settings: 2 µM
[8] = as §1, with “WLS-069” for “Z-024”, “human” for “pig”, “ERS12561748” for “ERS12561823”; settings: 2 µM
[9] = as §1, with “WLS-052” for “Z-024”, “human” for “pig”, “ERS12561747” for “ERS12561823”; settings: 2 µM
[10] = human gut metagenome, 24 h, 2 µM
[11] = human gut metagenome, 24 h, 2 µM; remark: listed apart in the source
[12] = human gut metagenome, 24 h, 2 µM; remark: listed apart in the source
[13] = human gut metagenome, 24 h, 2 µM; remark: listed apart in the source
[14] = human gut metagenome, 24 h, 2 µM; remark: listed apart in the source
[15] = human gut metagenome, 24 h, 2 µM; remark: listed apart in the source
[16] = human gut metagenome, 24 h, 2 µM; remark: listed apart in the source
[17] = human gut metagenome, 24 h, 2 µM; remark: listed apart in the source
[18] = human gut metagenome, 24 h, 2 µM; remark: listed apart in the source
[19] = human gut metagenome, 24 h, 2 µM; remark: listed apart in the source
[20] = human gut metagenome, 24 h, 2 µM; remark: listed apart in the source
Further: call rule not given here.

SMILES	Bacterial Biotransformation [1]	Bacterial Biotransformation [2]	Bacterial Biotransformation [3]	Bacterial Biotransformation [4]	Bacterial Biotransformation [5]	Bacterial Biotransformation [6]	Bacterial Biotransformation [7]	Bacterial Biotransformation [8]	Bacterial Biotransformation [9]	Bacterial Biotransformation [10]	Bacterial Biotransformation [11]	Bacterial Biotransformation [12]	Bacterial Biotransformation [13]	Bacterial Biotransformation [14]	Bacterial Biotransformation [15]	Bacterial Biotransformation [16]	Bacterial Biotransformation [17]	Bacterial Biotransformation [18]	Bacterial Biotransformation [19]	Bacterial Biotransformation [20]
COc1ccc([C@@H]2Sc3ccccc3N(CCN(C)C)C(=O)[C@@H]2OC(C)=O)cc1 [DILTIAZEM]	Compound NOT metabolized	Compound NOT metabolized	Compound NOT metabolized	Compound metabolized	Compound NOT metabolized	Compound metabolized	Compound metabolized	Compound metabolized	Compound NOT metabolized	Compound NOT metabolized	Compound NOT metabolized	Compound metabolized	Compound NOT metabolized	Compound metabolized	Compound metabolized	Compound NOT metabolized	Compound metabolized	Compound NOT metabolized	Compound NOT metabolized	Compound NOT metabolized
OCCN(CCO)c1nc(N2CCCCC2)c2nc(N(CCO)CCO)nc(N3CCCCC3)c2n1 [DIPYRIDAMOLE]	Compound metabolized	Compound NOT metabolized	Compound NOT metabolized	Compound NOT metabolized	Compound NOT metabolized	Compound metabolized	Compound NOT metabolized	Compound metabolized	Compound metabolized	Compound metabolized	Compound NOT metabolized	Compound metabolized	Compound metabolized	Compound metabolized	Compound metabolized	Compound metabolized	Compound NOT metabolized	Compound NOT metabolized	Compound NOT metabolized	Compound NOT metabolized
CN(C)CCOC(C)(c1ccccc1)c1ccccn1.O=C(O)CCC(=O)O (stereo not given) [DOXYLAMINE SUCCINATE]	Compound NOT metabolized	Compound NOT metabolized	Compound NOT metabolized	Compound NOT metabolized	Compound NOT metabolized	Compound NOT metabolized	Compound NOT metabolized	Compound NOT metabolized	Compound NOT metabolized	Compound NOT metabolized	Compound NOT metabolized	Compound NOT metabolized	Compound NOT metabolized	Compound NOT metabolized	Compound NOT metabolized	Compound NOT metabolized	Compound NOT metabolized	Compound NOT metabolized	Compound NOT metabolized	Compound NOT metabolized
Br.CN1CCC[C@@H]1Cc1c[nH]c2ccc(CCS(=O)(=O)c3ccccc3)cc12 [ELETRIPTAN HYDROBROMIDE]	Compound NOT metabolized	Compound NOT metabolized	Compound NOT metabolized	Compound NOT metabolized	Compound NOT metabolized	Compound metabolized	Compound metabolized	Compound metabolized	Compound NOT metabolized	Compound NOT metabolized	Compound NOT metabolized	Compound NOT metabolized	Compound NOT metabolized	Compound metabolized	Compound NOT metabolized	Compound NOT metabolized	Compound NOT metabolized	Compound NOT metabolized	Compound NOT metabolized	Compound NOT metabolized
CCOc1ccc2nc(S(N)(=O)=O)sc2c1 [ETHOXZOLAMIDE]	Compound NOT metabolized	Compound NOT metabolized	Compound NOT metabolized	Compound NOT metabolized	Compound NOT metabolized	Compound metabolized	Compound NOT metabolized	Compound NOT metabolized	Compound NOT metabolized	Compound NOT metabolized	Compound NOT metabolized	Compound NOT metabolized	Compound NOT metabolized	Compound NOT metabolized	Compound NOT metabolized	Compound NOT metabolized	Compound NOT metabolized	Compound NOT metabolized	Compound NOT metabolized	Compound NOT metabolized
CCc1cccc2c3c([nH]c12)C(CC)(CC(=O)O)OCC3 (stereo not given) [ETODOLAC]	Compound NOT metabolized	Compound NOT metabolized	Compound NOT metabolized	Compound NOT metabolized	Compound NOT metabolized	Compound metabolized	Compound NOT metabolized	Compound metabolized	Compound metabolized	Compound metabolized	Compound metabolized	Compound metabolized	Compound NOT metabolized	Compound metabolized	Compound NOT metabolized	Compound metabolized	Compound metabolized	Compound metabolized	Compound NOT metabolized	Compound NOT metabolized
CC(=O)OCC(CCn1cnc2cnc(N)nc21)COC(C)=O [FAMCICLOVIR]	Compound metabolized	Compound NOT metabolized	Compound metabolized	Compound NOT metabolized	Compound metabolized	Compound metabolized	Compound metabolized	Compound metabolized	Compound metabolized	Compound metabolized	Compound metabolized	Compound metabolized	Compound metabolized	Compound metabolized	Compound metabolized	Compound metabolized	Compound metabolized	Compound metabolized	Compound metabolized	Compound NOT metabolized
CC1Cc2ccccc2N1NC(=O)c1ccc(Cl)c(S(N)(=O)=O)c1 (stereo not given) [INDAPAMIDE]	Compound NOT metabolized	Compound NOT metabolized	Compound NOT metabolized	Compound NOT metabolized	Compound NOT metabolized	Compound NOT metabolized	Compound NOT metabolized	Compound NOT metabolized	Compound NOT metabolized	Compound NOT metabolized	Compound NOT metabolized	Compound NOT metabolized	Compound NOT metabolized	Compound NOT metabolized	Compound NOT metabolized	Compound NOT metabolized	Compound NOT metabolized	Compound NOT metabolized	Compound NOT metabolized	Compound NOT metabolized
